Test results as given in article PMC11239830, “Synthetic macrolides overcoming MLSBK-resistant pathogens” (Cell Discovery, 2024).
≈ marks a conversion by molar mass, not a printed value. Where two headings read alike, the source gives them in different places.

Legend:
[1] = system: S. pneumoniae; test: MIC, broth microdilution; format: cell-based, Streptococcus pneumoniae
Outline: (§1)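 Minimum inhibitory concentrations were measured by broth microdilution following CLSI guidelines. Plates were incubated at 37 °C for 16–20 h before results were read and recorded, and each determination was repeated at least three times.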

[2] = system: S. pyogenes; test: MIC, broth microdilution; format: cell-based, Streptococcus pyogenes
Outline: as §1

[3] = system: M. catarrhalis; test: MIC, broth microdilution; format: cell-based, Moraxella catarrhalis; conditions: Moraxella catarrhalis; M. catarrhalis 13L332, Ery-S; read-out: MIC
Outline: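 CLSI broth microdilution: compounds were 2-fold diluted in cation-adjusted Mueller-Hinton broth, with a final inoculum of 5 × 10^5 CFU/mL, and incubated at 37 °C for 16–20 h. MIC was the lowest concentration without visible growth, replicated at least three times.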

[4] = system: H. influenzae; test: MIC, broth microdilution; format: cell-based, Haemophilus influenzae
Outline: as §1

[5] = system: S. aureus; test: MICs and MBCs against selected S. aureus isolates; format: cell-based, Staphylococcus aureus; conditions: for MIC / MBC: Staphylococcus aureus

In the case of `CC[C@H]1OC(=O)[C@H](C)[C@@H](OC(=O)NCCCCCCC#Cc2ccc3c(=O)c(C(=O)O)cn(C)c3c2)[C@H](C)[C@@H](O[C@@H]2O[C@H](C)C[C@H](N(C)C)[C@H]2O)[C@](C)(OC)C[C@@H](C)C(=O)[C@H](C)[C@H]2NC(=O)O[C@@]21C` [MCX-219], the MIC ([1]; S. pneumoniae 07P390, c-ermB, listed as 88g) is reported as 0.06 µg/mL (≈ 0.062 µM), the MIC ([1]; S. pneumoniae 21C315, Clinical, c-ermB) is reported as 0.016 µg/mL (≈ 0.0165 µM) and the MIC ([1]; S. pneumoniae 21D016, Clinical, c-ermB, mef) is reported as 0.03 µg/mL (≈ 0.031 µM). The MIC ([1]; S. pneumoniae 21D020, Clinical, c-ermB, mef) was 0.03 µg/mL (≈ 0.031 µM), the MIC ([1]; S. pneumoniae 21M277, Clinical, c-ermB) was 0.25 µg/mL (≈ 0.258 µM) and the MIC ([1]; S. pneumoniae 21Q352, Clinical, i-MLSB) was at most 0.002 µg/mL. It also gave an MIC ([1]; S. pneumoniae 21Q353, Clinical, i-MLSB) of at most 0.002 µg/mL, an MIC ([1]; S. pneumoniae 21W257, Clinical, c-ermB, mef) of 0.016 µg/mL (≈ 0.0165 µM) and an MIC ([1]; S. pneumoniae 21X435, Clinical) of at most 0.002 µg/mL. It also gave an MIC ([1]; S. pneumoniae ATCC49619) of at most 0.002 µg/mL, an MIC ([1]; Streptococcus pneumoniae, ATCC49619, S. pneumoniae ATCC49619, Ery-S, read-out: MIC) of at most 0.008 µg/mL and an MIC ([1]; Streptococcus pneumoniae, S. pneumoniae 05O173, c-ermB, mef, read-out: MIC) of 2 µg/mL (≈ 2.07 µM). The MIC ([1]; Streptococcus pneumoniae, S. pneumoniae 07P390, c-ermB, read-out: MIC) was 0.03 µg/mL (≈ 0.031 µM), the MIC ([1]; Streptococcus pneumoniae, S. pneumoniae PU09, mef, read-out: MIC) was at most 0.008 µg/mL and the MIC ([2]; S. pyogenes 01-968, Clinical, i-ermB) was at most 0.002 µg/mL. For the same molecule, the MIC ([2]; S. pyogenes 12-207, Clinical, mef) was 0.016 µg/mL (≈ 0.0165 µM), the MIC ([2]; S. pyogenes 21C303, Clinical, c-ermB) was 0.5 µg/mL (≈ 0.517 µM) and the MIC ([2]; S. pyogenes 21D184, Clinical, c-ermB) was 0.5 µg/mL (≈ 0.517 µM). For the same molecule, the MIC ([2]; S. pyogenes 21D199, Clinical, c-ermB) was 1 µg/mL (≈ 1.03 µM), the MIC ([2]; S. pyogenes 21D200, Clinical, c-ermB) was 0.25 µg/mL (≈ 0.258 µM) and the MIC ([2]; S. pyogenes 21K003, Clinical, mef) was 0.06 µg/mL (≈ 0.062 µM). The MIC ([2]; S. pyogenes 21M063, Clinical, c-ermB) was 0.25 µg/mL (≈ 0.258 µM), the MIC ([2]; S. pyogenes 21W186, Clinical, c-ermTR) was 4 µg/mL (≈ 4.14 µM) and the MIC ([2]; Streptococcus pyogenes, S. pyogenes 01-968, i-ermTR (Table S5), read-out: MIC) was at most 0.008 µg/mL. It also gave an MIC ([2]; Streptococcus pyogenes, S. pyogenes 12-206, c-ermB (Table S5), read-out: MIC) of 0.12 µg/mL (≈ 0.124 µM), an MIC ([2]; Streptococcus pyogenes, S. pyogenes 12-206, c-ermTR, read-out: MIC) of 0.06 µg/mL (≈ 0.062 µM) and an MIC [3] of 0.5 µg/mL (≈ 0.517 µM). For the same molecule, the MIC ([4]; H. influenzae ATCC49247, Azi-S, listed as 88g) was 4 µg/mL (≈ 4.14 µM), the MIC ([4]; Haemophilus influenzae, ATCC49247, H. influenzae ATCC49247, Azi-S, read-out: MIC) was 2 µg/mL (≈ 2.07 µM) and the MBC/MIC ([5]; S. aureus ATCC29213) was 4. For the same molecule, the MIC ([5]; ATCC29213, S. aureus ATCC29213 (Table S10), read-out: MIC) was 0.25 µg/mL (≈ 0.258 µM), the MBC ([5]; MRSA, strain 1, MRSA, i-ermA) was 1 µg/mL (≈ 1.03 µM) and the MIC ([5]; MRSA, strain 1, MRSA, i-ermA) was 0.25 µg/mL (≈ 0.258 µM). It also gave an MBC ([5]; MRSA, strain 4, MRSA, i-ermA) of 0.5 µg/mL (≈ 0.517 µM), an MIC ([5]; MRSA, strain 4, MRSA, i-ermA) of 0.12 µg/mL (≈ 0.124 µM) and an MBC ([5]; MRSA, strain 5, MRSA, i-ermC) of 2 µg/mL (≈ 2.07 µM). It also gave an MIC ([5]; MRSA, strain 5, MRSA, i-ermC) of 1 µg/mL (≈ 1.03 µM), an MBC ([5]; MRSA, strain 6, MRSA, c-ermB) of 16 µg/mL (≈ 16.5 µM) and an MIC ([5]; MRSA, strain 6, MRSA, c-ermB) of 2 µg/mL (≈ 2.07 µM). The MBC ([5]; MRSA, strain 7, MRSA, c-ermB) was over 16 µg/mL, the MIC ([5]; MRSA, strain 7, MRSA, c-ermB) was 2 µg/mL (≈ 2.07 µM) and the MBC ([5]; MRSA, strain 10, MRSA, c-ermB) was 16 µg/mL (≈ 16.5 µM). For the same molecule, the MIC ([5]; MRSA, strain 10, MRSA, c-ermB) was 4 µg/mL (≈ 4.14 µM), the MBC ([5]; MRSA, strain 11, MRSA, c-ermB) was over 16 µg/mL and the MIC ([5]; MRSA, strain 11, MRSA, c-ermB) was 2 µg/mL (≈ 2.07 µM). The MIC ([5]; MSSA, strain 2, MSSA, i-ermC, read-out: MIC) was 0.25 µg/mL (≈ 0.258 µM), the MIC ([5]; MSSA, strain 3, MSSA, i-ermC, read-out: MIC) was 0.25 µg/mL (≈ 0.258 µM) and the MBC ([5]; MSSA, strain 8, MSSA, c-ermB) was 16 µg/mL (≈ 16.5 µM). For the same molecule, the MIC ([5]; MSSA, strain 8, MSSA, c-ermB, read-out: MIC) was 4 µg/mL (≈ 4.14 µM), the MIC ([5]; MSSA, strain 9, MSSA, c-ermB, read-out: MIC) was 0.5 µg/mL (≈ 0.517 µM) and the MBC ([5]; S. aureus ATCC29213, read-out: MBC) was 1 µg/mL (≈ 1.03 µM).
